Data as given in publication PMC3509364 (Angewandte Chemie (International ed. in English), 2012).

Target: PAK1 (Homo sapiens, UniProt Q13153)
Experiment: PAK1 kinase inhibition, IC50 curves at 1 µM ATP
Type: biochemical

Chain of PAK1 (Q13153 whole entry): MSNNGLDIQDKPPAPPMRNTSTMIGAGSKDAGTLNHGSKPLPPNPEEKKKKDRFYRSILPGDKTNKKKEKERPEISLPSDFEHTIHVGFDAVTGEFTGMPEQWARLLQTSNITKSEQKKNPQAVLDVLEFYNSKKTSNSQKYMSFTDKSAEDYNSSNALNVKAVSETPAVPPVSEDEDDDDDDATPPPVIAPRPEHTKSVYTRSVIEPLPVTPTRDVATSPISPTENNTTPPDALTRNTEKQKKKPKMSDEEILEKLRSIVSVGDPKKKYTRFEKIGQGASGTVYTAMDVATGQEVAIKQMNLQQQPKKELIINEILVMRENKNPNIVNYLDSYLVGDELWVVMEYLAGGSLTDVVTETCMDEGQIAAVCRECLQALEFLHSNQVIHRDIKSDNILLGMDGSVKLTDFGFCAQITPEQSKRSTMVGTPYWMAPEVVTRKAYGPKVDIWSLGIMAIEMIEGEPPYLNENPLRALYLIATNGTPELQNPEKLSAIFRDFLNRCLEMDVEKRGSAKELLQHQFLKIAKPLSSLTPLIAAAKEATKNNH

SeCN
fold weaker inhibitor of PAK1 than NCS complex 1 (ratio of IC50 values, 1 µM ATP): 7.5 fold | IC50 (read-out: IC50 against PAK1, 1 µM ATP (Figure 3)): 625 ± 60 nM
